Laboratory results as given in the supplement of paper PMC10307832.

Tests used:
Test in all cases: relative viability (nuclei count vs DMSO), 5 days (fraction); higher = more cells survive
[1] = compound: COC1=CC=C(C=C1)COC2=C(C=C(C=C2)CC3=CN=C(N=C3N)N)OC [GW-2580] + CC(=O)Nc1cccc(-n2c(=O)n(C3CC3)c(=O)c3c(Nc4ccc(I)cc4F)n(C)c(=O)c(C)c32)c1 [Trametinib] (partner 0.02 µM)
Outline: (§1)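 Lung cancer cell lines were pin-tool dosed in 1536-well plates on the day after seeding, with either a lone drug or a fixed anchor-drug dose plus five library-drug doses (not always all listed) in √10 steps. Nuclei were counted on 4× images after 5 days. Relative viability is the ratio of treated-well to vehicle-well nuclei counts, with each value a median of duplicate plates.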

[2] = compound: COC1=CC=C(C=C1)COC2=C(C=C(C=C2)CC3=CN=C(N=C3N)N)OC [GW-2580] + Nc1ncn([C@H]2C[C@H](O)[C@@H](CO)O2)c(=O)n1 [Decitabine] (partner 2 µM)
Outline: as §1

[3] = compound: Cc1cnc(Nc2ccc(OCCN3CCCC3)cc2)nc1Nc1cccc(S(=O)(=O)NC(C)(C)C)c1 [Fedratinib] + Cc1nc(Nc2ncc(C(=O)Nc3c(C)cccc3Cl)s2)cc(N2CCN(CCO)CC2)n1 [Dasatinib] (partner 0.075 µM)
Outline: as §1

[4] = compound: COC1=CC=C(C=C1)COC2=C(C=C(C=C2)CC3=CN=C(N=C3N)N)OC [GW-2580] + CS(=O)(=O)N1CCN(Cc2cc3nc(-c4cccc5[nH]ncc45)nc(N4CCOCC4)c3s2)CC1 [Pictilisib] (partner 1 µM)
Outline: as §1

[5] = compound: Cc1cnc(Nc2ccc(OCCN3CCCC3)cc2)nc1Nc1cccc(S(=O)(=O)NC(C)(C)C)c1 [Fedratinib] + CC1(C)CCC(c2ccc(Cl)cc2)=C(CN2CCN(c3ccc(C(=O)NS(=O)(=O)c4ccc(N[C@H](CCN5CCOCC5)CSc5ccccc5)c(S(=O)(=O)C(F)(F)F)c4)cc3)CC2)C1 [Navitoclax] (partner 0.5 µM)
Outline: as §1

Cell Line	relative viability ([1]; first compound 0.08 µM)	relative viability ([1]; first compound 0.8 µM)	relative viability ([1]; first compound 2.53 µM)	relative viability ([1]; first compound 8 µM)	relative viability ([2]; first compound 0.08 µM)	relative viability ([2]; first compound 0.8 µM)	relative viability ([2]; first compound 2.53 µM)	relative viability ([2]; first compound 8 µM)	relative viability ([3]; first compound 0.1 µM)	relative viability ([3]; first compound 0.3162 µM)	relative viability ([3]; first compound 1 µM)	relative viability ([4]; first compound 0.08 µM)	relative viability ([4]; first compound 0.8 µM)	relative viability ([4]; first compound 2.53 µM)	relative viability ([4]; first compound 8 µM)	relative viability ([5]; first compound 0.1 µM)	relative viability ([5]; first compound 0.3162 µM)	relative viability ([5]; first compound 1 µM)
NCI-H2342	0.805	0.889	0.783	0.83	0.673	0.654	0.692	0.735	0.314	0.309	0.273	–	–	–	–	–	–	–
HCC-15	0.393	0.412	0.337	0.307	0.631	0.818	0.636	0.69	0.508	0.58	0.337	0.79	0.824	0.653	0.677	0.654	0.635	0.487
A-427	0.785	0.675	0.648	0.704	0.541	0.555	0.531	0.618	0.74	0.733	0.249	0.73	0.661	0.678	0.655	0.973	0.905	0.933
NCI-H2228	0.483	0.51	0.364	0.511	–	–	–	–	0.552	0.448	0.349	0.425	0.285	0.327	0.417	0.631	0.838	0.599
NCI-H1734	0.765	0.69	0.695	0.647	0.522	0.457	0.539	0.55	0.455	0.464	0.4	0.491	0.478	0.431	0.436	0.852	0.865	0.828
PC-14	0.806	0.675	0.585	0.637	0.191	0.198	0.236	0.221	0.167	0.272	0.143	0.909	1.03	0.781	0.725	1.16	1.08	0.989
NCI-H1915	0.312	0.288	0.251	0.279	0.248	0.272	0.575	0.251	0.258	0.307	0.179	0.986	0.906	0.954	0.886	0.747	0.726	0.761
NCI-H1666	0.846	0.767	0.796	0.872	0.604	0.888	0.738	0.698	0.843	0.675	0.731	0.55	0.653	0.316	0.573	0.877	0.96	0.946
HCC-366	0.344	0.401	0.295	0.412	0.328	0.375	0.352	0.449	0.601	0.595	0.428	0.148	0.199	0.141	0.137	1.22	1.04	1.07
SK-MES-1	0.585	0.491	0.522	0.503	0.361	0.399	0.309	0.422	0.285	0.427	0.272	0.34	0.381	0.355	0.324	1.39	1.19	1.07
SW 1573	0.535	0.598	0.532	0.614	0.498	0.58	0.422	0.537	0.612	0.614	0.305	0.442	0.613	0.542	0.536	0.984	1	0.927
NCI-H661	0.678	0.566	0.516	0.504	0.597	0.542	0.516	0.546	0.83	0.912	0.612	0.343	0.377	0.321	0.361	–	–	–
PC-3 [JPC-3]	0.7	0.674	0.685	0.745	0.8	0.855	0.829	0.783	1.11	0.905	0.966	0.857	0.798	0.716	0.68	0.856	0.804	0.782
NCI-H1623	–	–	–	–	–	–	–	–	0.339	0.45	0.408	–	–	–	–	–	–	–
Calu-6	–	–	–	–	–	–	–	–	–	–	–	0.99	1.08	0.908	1.05	0.828	0.795	0.727
LC-2-ad	0.883	0.995	0.923	0.816	0.82	0.913	0.833	0.815	0.702	0.636	0.266	0.577	0.502	0.447	0.413	0.436	0.45	0.3
CAL-12T	0.33	0.284	0.356	0.436	–	–	–	–	0.47	0.277	0.285	0.45	0.739	0.341	0.513	1	1.15	1.13
RERF-LC-KJ	0.821	0.953	0.769	0.82	0.687	0.799	0.673	0.658	0.683	0.768	0.655	0.553	0.404	0.478	0.515	0.913	0.948	1.07
NCI-H1650	0.623	0.533	0.579	0.599	0.502	0.396	0.468	0.372	–	0.295	0.231	0.644	0.564	0.454	0.601	1.25	1.12	1.15
